This test deals with Carbonic anhydrase 9 (Homo sapiens, UniProt Q16790).

16 compounds from ChEMBL document CHEMBL4033706, “Synthesis of novel acyl selenoureido benzensulfonamides as carbonic anhydrase I, II, VII and IX inhibitors” (Bioorg Med Chem, 2017) can be followed below.

The Ki is the equilibrium dissociation constant of an inhibitor or competing ligand from its target. Read a high Ki as a looser hold on the target.

Description: Inhibition of recombinant human carbonic anhydrase-9 assessed as reduction in CO2 hydration preincubated for 15 mins followed by CO2 addition measured for 10 to 100 secs by stopped-flow assay

`Cc1cccc(C(=O)NC(=[Se])Nc2cccc(S(N)(=O)=O)c2)c1`: the Ki amounted to 43.9 nM.

Turning to `CC(=O)Oc1ccccc1C(=O)NC(=[Se])Nc1ccc(S(N)(=O)=O)cc1`, the affinity corresponds to a Ki of 13.6 nM.

Compound `NS(=O)(=O)c1ccc(CCNC(=[Se])NC(=O)c2ccc3c(c2)OCO3)cc1` displayed a Ki of 105 nM.

In the case of `NS(=O)(=O)c1ccccc1NC(=[Se])NC(=O)c1ccccc1`, the inhibitory constant (Ki) was 284 nM.

Turning to `NS(=O)(=O)c1cccc(NC(=[Se])NC(=O)c2ccccc2)c1`, the Ki stood at 374 nM.

`Cc1cccc(C(=O)NC(=[Se])NCCc2ccc(S(N)(=O)=O)cc2)c1` displayed a Ki of 146 nM.

`NS(=O)(=O)c1ccc(NC(=[Se])NC(=O)c2ccccc2)cc1` displayed a Ki of 4.6 nM.

Consider `CC(=O)Oc1ccccc1C(=O)NC(=[Se])Nc1cc(S(N)(=O)=O)ccc1O`, for which affinity was put at a Ki of 80.8 nM.

Compound `NS(=O)(=O)c1cccc(NC(=[Se])NC(=O)c2ccc(C(F)(F)F)cc2C(F)(F)F)c1` yielded a Ki of 4700 nM.

In the case of `NS(=O)(=O)c1ccc(CCNC(=[Se])NC(=O)c2ccc(-c3ccccc3)cc2)cc1`, the Ki is 4870 nM.

Take `Cc1cc(C(=O)NC(=[Se])Nc2cc(S(N)(=O)=O)ccc2O)ccc1Br`: the Ki stood at 5.8 nM. Against the preceding compound, the Ki is about 840-fold lower.

For `NS(=O)(=O)c1ccc(NC(=[Se])NC(=O)c2cc(Br)cc(OC(F)(F)F)c2)cc1`, affinity was put at a Ki of 3.5 nM.

Compound `NS(=O)(=O)c1ccc(CCNC(=[Se])NC(=O)c2ccccc2)cc1` had a Ki of 7.2 nM.

In the case of `NS(=O)(=O)c1ccc(O)c(NC(=[Se])NC(=O)c2ccc(-c3ccccc3)cc2)c1`, the Ki amounted to 69.1 nM.

Take `CCCCCCCc1ccc(C(=O)NC(=[Se])Nc2ccc(S(N)(=O)=O)cc2)cc1`: the affinity corresponds to a Ki of 25.1 nM.

The compound `NS(=O)(=O)c1ccc(NC(=[Se])NC(=O)c2ccc3c(c2)OCO3)cc1` displayed a Ki of 129 nM.
